Measured values as given in patent US10231954B2, “Neurodegenerative therapies” (LYTIX BIOPHARMA AS, priority 2014, dated 2019).
Like-named read-outs stand apart in the source and are kept apart here.

Columns and labels:
Type in all cases: biochemical
MSK1 = MSK1 (Homo sapiens, UniProt O75582); assay: Kinase profiling MSK1; conditions: for remaining activity at 100 µM: read-out: residual kinase activity, MSK1
Text: (§1) Any value less that 25 is considered to be highly significant inhibition.

TBK1 = biological target: T1, TBK1 (Homo sapiens, UniProt Q9UHD2); assay: Kinase profiling TBK1; conditions: for remaining activity at 100 µM: read-out: residual kinase activity, TBK1
T1 sequence (Q9UHD2 1-729): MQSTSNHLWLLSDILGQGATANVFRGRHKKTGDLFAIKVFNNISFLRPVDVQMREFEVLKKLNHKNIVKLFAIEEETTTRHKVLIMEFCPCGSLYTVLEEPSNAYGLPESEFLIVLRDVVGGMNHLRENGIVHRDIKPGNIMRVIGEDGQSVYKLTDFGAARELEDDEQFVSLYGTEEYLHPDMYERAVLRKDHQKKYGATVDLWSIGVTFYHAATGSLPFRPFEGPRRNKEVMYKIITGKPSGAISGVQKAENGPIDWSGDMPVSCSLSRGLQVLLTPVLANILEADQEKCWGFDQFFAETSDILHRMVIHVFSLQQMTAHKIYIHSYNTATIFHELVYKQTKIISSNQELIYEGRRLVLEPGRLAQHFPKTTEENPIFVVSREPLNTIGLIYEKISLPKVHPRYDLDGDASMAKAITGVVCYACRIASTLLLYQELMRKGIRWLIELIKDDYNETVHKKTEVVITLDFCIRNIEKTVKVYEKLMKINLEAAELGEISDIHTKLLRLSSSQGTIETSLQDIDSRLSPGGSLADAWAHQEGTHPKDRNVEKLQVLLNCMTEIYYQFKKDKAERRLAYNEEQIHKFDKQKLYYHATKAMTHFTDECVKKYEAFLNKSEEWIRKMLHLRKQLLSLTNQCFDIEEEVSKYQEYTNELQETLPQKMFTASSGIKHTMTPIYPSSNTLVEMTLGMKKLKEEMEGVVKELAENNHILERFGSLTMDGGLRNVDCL
Text: as §1

MST2 = biological target: T2, MST2 (Homo sapiens, UniProt Q13188); assay: Kinase profiling MST2; conditions: for remaining activity at 100 µM: read-out: residual kinase activity, MST2
T2 sequence (Q13188 1-491): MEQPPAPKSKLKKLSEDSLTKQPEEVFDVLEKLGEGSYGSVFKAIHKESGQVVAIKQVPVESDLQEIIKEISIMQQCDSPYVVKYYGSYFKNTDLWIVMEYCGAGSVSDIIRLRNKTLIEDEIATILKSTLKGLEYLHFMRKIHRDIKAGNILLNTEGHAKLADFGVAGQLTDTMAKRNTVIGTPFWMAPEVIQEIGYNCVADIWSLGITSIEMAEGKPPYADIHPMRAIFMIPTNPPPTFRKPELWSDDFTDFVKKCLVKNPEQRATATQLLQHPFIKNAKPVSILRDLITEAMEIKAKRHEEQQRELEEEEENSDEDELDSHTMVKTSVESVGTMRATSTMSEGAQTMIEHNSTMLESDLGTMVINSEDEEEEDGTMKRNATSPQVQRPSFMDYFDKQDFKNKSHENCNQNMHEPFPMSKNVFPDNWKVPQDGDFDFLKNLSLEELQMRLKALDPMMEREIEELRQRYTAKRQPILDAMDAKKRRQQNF
Text: as §1

SYK = SYK (Homo sapiens, UniProt P43405); assay: Kinase profiling SYK; conditions: for remaining activity at 100 µM: read-out: residual kinase activity, SYK
Text: as §1

EF2K = EF2K (Homo sapiens, UniProt O00418); assay: Kinase profiling EF2K; conditions: for remaining activity at 100 µM: read-out: residual kinase activity, EF2K
Text: as §1

CAMKKb = CAMKKb (Homo sapiens, UniProt Q96RR4); assay: Kinase profiling CAMKKb; conditions: for remaining activity at 100 µM: read-out: residual kinase activity, CAMKKb
CAMKKb, sequence (Q96RR4 whole entry, species assumed): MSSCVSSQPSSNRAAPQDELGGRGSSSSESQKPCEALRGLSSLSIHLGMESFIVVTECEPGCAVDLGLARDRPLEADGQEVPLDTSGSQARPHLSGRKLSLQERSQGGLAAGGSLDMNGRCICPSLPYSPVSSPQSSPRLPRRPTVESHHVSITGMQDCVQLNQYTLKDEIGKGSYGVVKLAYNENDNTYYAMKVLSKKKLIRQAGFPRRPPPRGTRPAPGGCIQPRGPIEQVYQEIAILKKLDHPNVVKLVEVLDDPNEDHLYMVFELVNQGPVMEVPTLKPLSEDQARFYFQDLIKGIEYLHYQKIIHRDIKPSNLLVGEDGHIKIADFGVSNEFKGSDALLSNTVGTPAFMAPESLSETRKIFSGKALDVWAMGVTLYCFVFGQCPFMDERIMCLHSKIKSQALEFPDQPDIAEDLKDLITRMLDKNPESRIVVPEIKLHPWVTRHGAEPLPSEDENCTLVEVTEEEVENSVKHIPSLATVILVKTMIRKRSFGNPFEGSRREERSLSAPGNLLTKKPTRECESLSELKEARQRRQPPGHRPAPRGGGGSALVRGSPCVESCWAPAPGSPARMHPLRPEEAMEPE
Text: as §1

PKBa = PKBa (Homo sapiens, UniProt P31749); assay: Kinase profiling PKBa; conditions: for remaining activity at 100 µM: read-out: residual kinase activity, PKBa; for residual kinase activity, PKBa: 100 micromolar inhibitor concentration, 100 is no change
PKBa, sequence (P31749 whole entry): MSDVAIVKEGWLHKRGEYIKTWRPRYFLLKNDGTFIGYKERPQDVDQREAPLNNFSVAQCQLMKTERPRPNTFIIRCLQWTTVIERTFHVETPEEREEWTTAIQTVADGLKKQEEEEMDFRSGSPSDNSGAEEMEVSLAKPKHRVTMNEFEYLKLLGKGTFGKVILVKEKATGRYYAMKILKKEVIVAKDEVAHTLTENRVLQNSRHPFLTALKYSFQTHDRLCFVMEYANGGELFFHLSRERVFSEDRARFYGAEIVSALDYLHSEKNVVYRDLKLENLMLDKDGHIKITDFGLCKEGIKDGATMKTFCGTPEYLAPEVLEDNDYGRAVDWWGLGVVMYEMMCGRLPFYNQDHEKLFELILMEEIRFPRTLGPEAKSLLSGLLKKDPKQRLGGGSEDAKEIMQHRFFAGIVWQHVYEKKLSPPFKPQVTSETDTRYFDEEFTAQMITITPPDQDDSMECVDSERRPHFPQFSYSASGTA
Text: as §1

PKCγ = PKCγ (Homo sapiens, UniProt P05129); assay: Kinase profiling PKCγ; conditions: for remaining activity at 100 µM: read-out: residual kinase activity, PKCγ
Text: as §1

LKB1 = biological target: T3, LKB1 (Homo sapiens, UniProt Q15831); assay: Kinase profiling LKB1; conditions: for remaining activity at 100 µM: read-out: residual kinase activity, LKB1
T3 sequence (Q15831 1-433): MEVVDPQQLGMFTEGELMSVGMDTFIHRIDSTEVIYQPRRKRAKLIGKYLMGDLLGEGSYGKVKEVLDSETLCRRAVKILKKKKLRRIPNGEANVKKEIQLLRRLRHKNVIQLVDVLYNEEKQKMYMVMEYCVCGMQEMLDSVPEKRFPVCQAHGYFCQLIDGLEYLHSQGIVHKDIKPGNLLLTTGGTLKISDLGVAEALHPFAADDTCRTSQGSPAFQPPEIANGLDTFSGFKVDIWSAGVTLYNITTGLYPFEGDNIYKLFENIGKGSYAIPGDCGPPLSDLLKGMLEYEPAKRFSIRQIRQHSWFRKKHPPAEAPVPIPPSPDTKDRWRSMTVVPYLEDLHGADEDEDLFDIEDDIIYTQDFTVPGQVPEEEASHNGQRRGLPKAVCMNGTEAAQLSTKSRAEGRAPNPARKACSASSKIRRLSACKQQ
T3 sequence (Q7RTN6 1-431 partner): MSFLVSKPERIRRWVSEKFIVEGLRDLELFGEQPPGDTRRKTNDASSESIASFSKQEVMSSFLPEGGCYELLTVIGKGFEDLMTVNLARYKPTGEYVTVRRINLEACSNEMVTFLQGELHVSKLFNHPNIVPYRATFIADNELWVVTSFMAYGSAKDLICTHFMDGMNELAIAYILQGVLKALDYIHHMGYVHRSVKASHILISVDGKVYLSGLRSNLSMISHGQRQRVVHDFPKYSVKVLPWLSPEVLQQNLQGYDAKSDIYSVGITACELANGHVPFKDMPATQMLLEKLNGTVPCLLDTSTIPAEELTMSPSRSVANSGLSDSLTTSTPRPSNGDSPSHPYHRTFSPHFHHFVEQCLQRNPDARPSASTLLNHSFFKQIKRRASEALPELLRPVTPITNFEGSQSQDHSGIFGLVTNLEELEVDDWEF
T3 sequence (Q9Y376 1-341 partner): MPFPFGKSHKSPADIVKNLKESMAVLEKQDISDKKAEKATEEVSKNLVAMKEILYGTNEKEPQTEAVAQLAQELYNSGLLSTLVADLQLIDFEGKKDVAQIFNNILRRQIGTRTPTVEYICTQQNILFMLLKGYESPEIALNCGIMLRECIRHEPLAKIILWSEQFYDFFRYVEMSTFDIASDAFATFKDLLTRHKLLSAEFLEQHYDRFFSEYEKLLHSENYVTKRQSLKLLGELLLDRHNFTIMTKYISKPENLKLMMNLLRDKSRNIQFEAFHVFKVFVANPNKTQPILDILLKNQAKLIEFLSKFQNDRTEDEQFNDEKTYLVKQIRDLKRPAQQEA
Text: as §1

STK33 = STK33 (Homo sapiens, UniProt Q9BYT3); assay: Kinase profiling STK33; conditions: for remaining activity at 100 µM: read-out: residual kinase activity, STK33
STK33, sequence (Q9BYT3 whole entry, species assumed): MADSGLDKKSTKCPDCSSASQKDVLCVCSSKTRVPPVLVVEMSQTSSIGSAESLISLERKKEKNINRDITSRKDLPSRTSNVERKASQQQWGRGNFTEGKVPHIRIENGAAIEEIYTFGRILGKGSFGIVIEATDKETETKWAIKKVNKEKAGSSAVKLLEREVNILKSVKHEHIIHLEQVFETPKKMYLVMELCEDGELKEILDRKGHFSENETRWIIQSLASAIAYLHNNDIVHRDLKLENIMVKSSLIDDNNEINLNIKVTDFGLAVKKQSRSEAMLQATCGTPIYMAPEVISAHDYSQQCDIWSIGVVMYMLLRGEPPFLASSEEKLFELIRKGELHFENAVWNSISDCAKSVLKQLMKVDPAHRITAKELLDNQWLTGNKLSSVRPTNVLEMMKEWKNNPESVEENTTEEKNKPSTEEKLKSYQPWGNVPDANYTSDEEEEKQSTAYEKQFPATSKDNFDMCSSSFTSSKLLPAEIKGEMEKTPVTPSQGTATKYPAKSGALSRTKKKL
Text: as §1

SRPK1 = SRPK1 (Homo sapiens, UniProt Q96SB4); assay: Kinase profiling SRPK1; conditions: for remaining activity at 100 µM: read-out: residual kinase activity, SRPK1
SRPK1, sequence (Q96SB4 whole entry, species assumed): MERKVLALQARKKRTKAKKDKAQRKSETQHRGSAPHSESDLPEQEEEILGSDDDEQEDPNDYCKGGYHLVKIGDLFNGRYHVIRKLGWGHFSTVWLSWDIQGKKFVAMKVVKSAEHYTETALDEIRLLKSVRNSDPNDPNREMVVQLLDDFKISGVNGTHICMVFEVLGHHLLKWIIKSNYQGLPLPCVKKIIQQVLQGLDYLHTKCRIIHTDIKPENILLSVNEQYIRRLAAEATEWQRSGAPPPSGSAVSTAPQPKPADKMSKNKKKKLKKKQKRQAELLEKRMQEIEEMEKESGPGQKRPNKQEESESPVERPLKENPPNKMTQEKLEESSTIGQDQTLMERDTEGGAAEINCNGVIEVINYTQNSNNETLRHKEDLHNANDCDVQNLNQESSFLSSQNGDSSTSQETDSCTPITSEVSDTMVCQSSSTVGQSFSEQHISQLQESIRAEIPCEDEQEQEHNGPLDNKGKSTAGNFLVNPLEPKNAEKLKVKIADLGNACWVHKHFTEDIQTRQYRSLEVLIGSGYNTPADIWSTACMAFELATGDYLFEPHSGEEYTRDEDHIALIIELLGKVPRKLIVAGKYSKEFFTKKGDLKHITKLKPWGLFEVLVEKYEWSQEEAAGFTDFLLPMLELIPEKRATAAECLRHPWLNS
Text: as §1

[1] = 100 micromolar inhibitor, 100 = no change
[2] = 100 micromolar inhibitor concentration, 100 is no change

MSK1, sequence (O75582 whole entry, species assumed): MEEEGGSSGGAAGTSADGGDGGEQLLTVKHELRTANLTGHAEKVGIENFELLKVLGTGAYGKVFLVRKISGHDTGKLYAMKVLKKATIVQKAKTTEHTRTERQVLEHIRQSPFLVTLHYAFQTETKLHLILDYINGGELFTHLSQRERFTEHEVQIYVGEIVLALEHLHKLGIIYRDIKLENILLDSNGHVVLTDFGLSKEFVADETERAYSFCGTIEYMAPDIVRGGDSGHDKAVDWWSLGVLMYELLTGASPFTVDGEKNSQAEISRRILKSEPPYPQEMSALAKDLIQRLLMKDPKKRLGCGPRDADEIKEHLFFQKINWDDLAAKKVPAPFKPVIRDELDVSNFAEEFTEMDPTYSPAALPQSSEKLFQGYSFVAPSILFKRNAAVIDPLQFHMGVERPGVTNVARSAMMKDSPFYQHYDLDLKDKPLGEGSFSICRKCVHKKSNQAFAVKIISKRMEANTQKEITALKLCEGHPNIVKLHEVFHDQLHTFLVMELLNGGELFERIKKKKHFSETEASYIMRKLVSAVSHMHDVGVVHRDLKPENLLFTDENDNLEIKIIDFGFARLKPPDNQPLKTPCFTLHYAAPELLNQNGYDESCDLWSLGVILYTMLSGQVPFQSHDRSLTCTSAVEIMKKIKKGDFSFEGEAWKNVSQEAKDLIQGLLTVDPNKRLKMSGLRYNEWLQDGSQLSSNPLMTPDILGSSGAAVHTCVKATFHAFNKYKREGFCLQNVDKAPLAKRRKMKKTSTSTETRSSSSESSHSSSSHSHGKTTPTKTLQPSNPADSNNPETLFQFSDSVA

Compound | residual kinase activity, MSK1 (MSK1; [2]) | residual kinase activity, TBK1 (TBK1; [2]) | residual kinase activity, MST2 (MST2; [2]) | residual kinase activity, SYK (SYK; [2]) | residual kinase activity, EF2K (EF2K; [2]) | residual kinase activity, CAMKKb (CAMKKb; [2]) | residual kinase activity, PKBa (PKBa) | residual kinase activity, PKCγ (PKCγ; [2]) | residual kinase activity, LKB1 (LKB1; [2]) | residual kinase activity, STK33 (STK33; [2]) | residual kinase activity, SRPK1 (SRPK1; [2]) | other results
CC(=O)Nc1cccc(NC(=O)c2nc3ccc(O)cc3s2)c1 [Compound 03-07, N-(3-acetamidophenyl)-6-hydroxybenzo[d]thiazole-2-carboxamide] |  |  |  |  |  |  |  |  |  |  |  | remaining activity at 100 µM (MSK1; [1]): 62%; remaining activity at 100 µM (TBK1; [1]): 92%; remaining activity at 100 µM (MST2; [1]): 68%; remaining activity at 100 µM (SYK; [1]): 102%; remaining activity at 100 µM (EF2K; [1]): 91%; remaining activity at 100 µM (CAMKKb; [1]): 30%; remaining activity at 100 µM (PKBa; [1]): 103%; remaining activity at 100 µM (PKCγ; [1]): 98%; remaining activity at 100 µM (LKB1; [1]): 83%; remaining activity at 100 µM (STK33; [1]): 63%; remaining activity at 100 µM (SRPK1; [1]): 27%
O=C(Nc1nc2cc(O)ccc2s1)c1ccncc1 [Compound 03-11] | 97 | 80 | 84 | 75 | 79 | 88 | 88 | 101 | 87 | 77 | 66 | 
O=C(Nc1nc2ccc(O)cc2s1)c1ccccn1 [Compound 03-12] | 90 | 68 | 61 | 99 | 69 | 41 | 74 | 143 | 64 | 65 | 63 | 
O=C(Nc1nc2cc(O)ccc2s1)c1ccccn1 [Compound 03-13] | 100 | 73 | 60 | 106 | 94 | 69 | 107 | 141 | 45 | 71 | 57 | 
COc1ccc2sc(NC(C)=O)nc2c1 [Compound 03-21] |  |  |  |  |  |  |  |  |  |  |  | remaining activity at 100 µM (MSK1; [2]): 93%; remaining activity at 100 µM (TBK1; [2]): 81%; remaining activity at 100 µM (MST2; [2]): 91%; remaining activity at 100 µM (SYK; [2]): 72%; remaining activity at 100 µM (EF2K; [2]): 105%; remaining activity at 100 µM (CAMKKb; [2]): 87%; remaining activity at 100 µM (PKBa): 91%; remaining activity at 100 µM (PKCγ; [2]): 103%; remaining activity at 100 µM (LKB1; [2]): 93%; remaining activity at 100 µM (STK33; [2]): 81%; remaining activity at 100 µM (SRPK1; [2]): 84%
CC(=O)Nc1nc2ccccc2s1 [Compound 03-32] | 98 | 88 | 88 | 116 | 89 | 101 | 104 | 94 | 97 | 104 | 59 | 
O=C(Nc1nc2cc(O)ccc2s1)c1cccnc1 [Compound 03-33] | 92 | 97 | 73 | 86 | 106 | 69 | 100 | 103 | 83 | 70 | 58 | 
O=C(Nc1nc2ccc(O)cc2s1)c1ccccc1 [Compound 03-60] | 31 | 36 | 40 | 64 | 107 | 37 | 79 | 83 | 68 | 38 | 3 | 
CC(=O)Nc1nc2cc(C(F)(F)F)ccc2s1 [Compound 03-73] |  |  |  |  |  |  |  |  |  |  |  | remaining activity at 100 µM (MSK1; [2]): 91%; remaining activity at 100 µM (TBK1; [2]): 64%; remaining activity at 100 µM (MST2; [2]): 80%; remaining activity at 100 µM (SYK; [2]): 74%; remaining activity at 100 µM (EF2K; [2]): 109%; remaining activity at 100 µM (CAMKKb; [2]): 65%; remaining activity at 100 µM (PKBa): 106%; remaining activity at 100 µM (PKCγ; [2]): 106%; remaining activity at 100 µM (LKB1; [2]): 98%; remaining activity at 100 µM (STK33; [2]): 86%; remaining activity at 100 µM (SRPK1; [2]): 72%
